Columns and labels:
[1] = test system: nephrotoxin-type nephritis; assay: Therapeutic effect on nephrotoxin-type nephritis (modified type of Masugi nephritis), proteinuria level; type: in vivo; conditions: rats
Protocol: (i) Preparation of anti-rat kidney rabbit serum.
The kidneys of SD male rats weighing about 250-300 g were sufficiently perfused with 0.9% saline. The renal cortical tissue was homogenized with 0.9% saline using a Teflon homogenizer. 4 ml of the homogenate was then suspended into the same volume of Freund's complete adjuvant. 2 ml of the said mixture was given subcutaneously to male rabbits weighing about 3 kg. 4 weeks later, 2 ml of the mixture was given intramuscularly as a booster. At the 5th week, a blood sample was taken. The serum separated by centrifugation at 3,000 rpm for 30 minutes was inactivated by heating at 56° C. for 30 minutes and preserved by freezing until just before use.
(ii) Induction of experimental nephritis (modified type of Masugi nephritis)
Experimental nephritis was induced in groups of 5 male rats weighing about 150-200 g by a single intravenous injection of 1 ml of the anti-kidney serum obtained in the above procedures.
(iii) Evaluation of anti-nephritic effect of drugs.
Drugs were given to a group of 5 rats once a day for 5 consecutive days from the 2nd day before the injection of anti-kidney serum. Each drug was dissolved into 3% sodium bicarbonate solution and given intraperitoneally in a volume of 1 ml/rat. In addition to the above drug-treated nephritic group, the non-treated-nephritic group (control) was set in the experiment. The proteinuria level (total) amount excreted into the urine over a 12 hour period) was measured using turbidometry employing bovine serum albumin as a control by means of sulfosalicylic acid.

[2] = test system: complement serum (guinea pig complement); assay: Anticomplementary activity (inhibition of hemolysis of sensitized erythrocytes); type: biochemical; conditions: 50% hemolysis inhibition, 37° C.
Protocol: The anticomplementary activity of the test compound was measured according to the test method as described in Experimental Immunochemistry, edited by E. A. Kabat and M. M. Mayer, 2nd ed., Springfield, III: C. C. Thomas (1961) pages 133-240.
A mixture of 1 ml of a 5-fold diluted solution of a Veronal buffer solution containing 1.5×10^-4 M Ca^2+ and 5×10^-4 M Mg^2+ and isotonic gelatin, 1.5 ml of complement serum (guinea pig complement) diluted 400 times with a physiological saline solution and 0.05 ml of a solution of a test compound (in this case, a test compound was dissolved in a physiological saline solution) was incubated at 37° C. for 30 minutes. To the said mixture there was added 0.4 ml of sensitized erythrocytes suspension containing 5×10^8 cells/ml and said mixture was incubated at 37° C. further for 60 minutes. After the incubation, the mixture was centrifuged in 3,000 rpm at 4° C. for 10 minutes.
The results are expressed in Table 1 as the concentration of each drugs inhibiting the hemolysis activity by 50% (IC50).

[3] = 10 mg/kg intraperitoneally once a day for 5 days
[4] = 30 mg/kg intraperitoneally once a day for 5 days

CCCCCCCCCCCCCCCC(=O)OC(CCCCCCCCCCCCCCC)CC(=O)NCC(=O)N[C@@H](CO)C(=O)O (stereo partly drawn) [Example 2, N-[N-(3-hexadecanoyloxyoctadecanoyl)glycyl]-L-serine]
protein uria level, 1st day [1, 3]: 5.9 mg/12 hours
protein uria level, 4th day [1, 3]: 3.7 mg/12 hours
protein uria level, 7th day [1, 3]: 39.6 mg/12 hours
protein uria level, 1st day [1, 4]: 3.5 mg/12 hours
protein uria level, 4th day [1, 4]: 5.5 mg/12 hours
protein uria level, 7th day [1, 4]: 16.5 mg/12 hours
Anticomplementary Activity (IC50) [2]: 0.03 to 0.04 µg/mL
